The molecules below were run against human TrkA receptor (Homo sapiens (Human), UniProt P04629) (assay: DiscoverX PathHunter TrkA functional assay (NGF-stimulated U2OS cells)). Conditions: U2OS cells expressing human TrkA-PK, Shc1-EA and p75NTR; compound 1 h, then NGF at ~80% of maximal response for 3 h; luminescence.
Format: cell-based

Chain of human TrkA receptor (P04629 33-796): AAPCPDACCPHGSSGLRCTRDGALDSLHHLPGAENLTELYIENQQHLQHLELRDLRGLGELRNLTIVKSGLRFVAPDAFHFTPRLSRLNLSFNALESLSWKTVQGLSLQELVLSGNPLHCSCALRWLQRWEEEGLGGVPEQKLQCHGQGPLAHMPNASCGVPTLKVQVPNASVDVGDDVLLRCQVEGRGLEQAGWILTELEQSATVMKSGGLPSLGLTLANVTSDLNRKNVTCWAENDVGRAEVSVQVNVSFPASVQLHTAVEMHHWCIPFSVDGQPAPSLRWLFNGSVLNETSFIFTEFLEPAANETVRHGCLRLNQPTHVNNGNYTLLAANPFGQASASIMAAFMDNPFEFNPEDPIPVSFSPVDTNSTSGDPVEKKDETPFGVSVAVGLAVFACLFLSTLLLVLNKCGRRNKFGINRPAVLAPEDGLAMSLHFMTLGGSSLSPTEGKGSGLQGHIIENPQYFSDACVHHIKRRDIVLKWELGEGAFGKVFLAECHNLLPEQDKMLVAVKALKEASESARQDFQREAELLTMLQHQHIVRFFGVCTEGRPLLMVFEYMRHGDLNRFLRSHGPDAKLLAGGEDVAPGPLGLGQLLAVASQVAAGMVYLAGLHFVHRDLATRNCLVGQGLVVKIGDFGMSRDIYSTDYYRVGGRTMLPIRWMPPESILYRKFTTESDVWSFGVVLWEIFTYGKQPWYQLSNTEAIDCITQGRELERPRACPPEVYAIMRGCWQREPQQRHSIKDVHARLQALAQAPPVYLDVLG

IC50 [nM] | Structure (SMILES)
9.3 | Cn1ccc(-c2cc(C(=O)Nc3cc(C(N)=O)nnc3-c3ccccc3)c(F)cc2C(F)(F)F)n1 [Example 94, 5-(2-fluoro-5-(1-methyl-1H-pyrazol-3-yl)-4-(trifluoromethyl)benzamido)-6-phenylpyridazine-3-carboxamide]
0.11 | CN1CC(=O)N(Cc2ncc(NC(=O)c3cc(-c4ccn(C)n4)c(C(F)(F)F)cc3F)c(-c3ccccc3)n2)C1=O [Example 95, 2-Fluoro-5-(1-methyl-1H-pyrazol-3-yl)-N-(2-((3-methyl-2,5-dioxoimidazolidin-1-yl)methyl)-4-phenylpyrimidin-5-yl)-4-(trifluoromethyl)benzamide]
0.083 | Cn1ccc(-c2cc(C(=O)Nc3cnc(CN4C(=O)CNC4=O)nc3-c3ccccc3)c(F)cc2C(F)(F)F)n1 [Example 96, N-(2-((2,5-dioxoimidazolidin-1-yl)methyl)-4-phenylpyrimidin-5-yl)-2-fluoro-5-(1-methyl-1H-pyrazol-3-yl)-4-(trifluoromethyl)benzamide]
0.25 | Cn1ccc(-c2cc(C(=O)Nc3cnc(CN4C(=O)COC4=O)nc3-c3ccccc3)c(F)cc2C(F)(F)F)n1 [Example 97, N-(2-((2,4-dioxooxazolidin-3-yl)methyl)-4-phenylpyrimidin-5-yl)-2-fluoro-5-(1-methyl-1H-pyrazol-3-yl)-4-(trifluoromethyl)benzamide]
0.22 | Cn1ccc(-c2cc(C(=O)Nc3ccc(CN4C(=O)CNC4=O)nc3-c3ccccc3)c(F)cc2C(F)(F)F)n1 [Example 98, N-(6-((2,5-dioxoimidazolidin-1-yl)methyl)-2-phenylpyridin-3-yl)-2-fluoro-5-(1-methyl-1H-pyrazol-3-yl)-4-(trifluoromethyl)benzamide]
0.59 | Cn1ccc(-c2cc(C(=O)Nc3cnc(CC(N)=O)nc3-c3ccccc3)c(F)cc2C(F)(F)F)n1 [Example 99, N-(2-(2-Amino-2-oxoethyl)-4-phenylpyrimidin-5-yl)-2-fluoro-5-(1-methyl-1H-pyrazol-3-yl)-4-(trifluoromethyl)benzamide]
1.2 | CN(C)C(=O)Cc1ncc(NC(=O)c2cc(-c3ccn(C)n3)c(C(F)(F)F)cc2F)c(-c2ccccc2)n1 [Example 100, N-(2-(2-(Dimethylamino)-2-oxoethyl)-4-phenylpyrimidin-5-yl)-2-fluoro-5-(1-methyl-1H-pyrazol-3-yl)-4-(trifluoromethyl)benzamide]
1.1 | Cn1ccc(-c2cc(C(=O)Nc3cnc(CC(N)=O)cc3-c3ccccc3)c(F)cc2C(F)(F)F)n1 [Example 101, N-(6-(2-Amino-2-oxoethyl)-4-phenylpyridin-3-yl)-2-fluoro-5-(1-methyl-1H-pyrazol-3-yl)-4-(trifluoromethyl)benzamide]
0.79 | Cn1ccc(-c2cc(C(=O)Nc3ccc(CC(N)=O)nc3-c3ccccc3)c(F)cc2C(F)(F)F)n1 [Example 102, N-(6-(2-Amino-2-oxoethyl)-2-phenylpyridin-3-yl)-2-fluoro-5-(1-methyl-1H-pyrazol-3-yl)-4-(trifluoromethyl)benzamide]
4.1 | CNC(=O)Cc1ncc(NC(=O)c2ccc(C(F)(F)F)c(-c3ccn(C)n3)c2)c(-c2ccccc2)n1 [Example 103, 3-(1-methyl-1H-pyrazol-3-yl)-N-(2-(2-(methylamino)-2-oxoethyl)-4-phenylpyrimidin-5-yl)-4-(trifluoromethyl)benzamide]
0.76 | CNC(=O)Cc1ncc(NC(=O)c2cc(-c3ccn(C)n3)c(C(F)(F)F)cc2F)c(-c2ccccc2)n1 [Example 104, 2-fluoro-5-(1-methyl-1H-pyrazol-3-yl)-N-(2-(2-(methylamino)-2-oxoethyl)-4-phenylpyrimidin-5-yl)-4-(trifluoromethyl)benzamide]
0.53 | CCNC(=O)Cc1ncc(NC(=O)c2cc(-c3ccn(C)n3)c(C(F)(F)F)cc2F)c(-c2ccccc2)n1 [Example 105, N-(2-(2-(ethylamino)-2-oxoethyl)-4-phenylpyrimidin-5-yl)-2-fluoro-5-(1-methyl-1H-pyrazol-3-yl)-4-(trifluoromethyl)benzamide]
2 | Cn1ccc(-c2cc(C(=O)Nc3cnc(CC(=O)O)nc3-c3ccccc3)c(F)cc2C(F)(F)F)n1 [Example 106, 2-(5-(2-fluoro-5-(1-methyl-1H-pyrazol-3-yl)-4-(trifluoromethyl)benzamido)-4-phenylpyrimidin-2-yl)acetic acid]
1.2 | Cn1ccc(-c2cc(C(=O)Nc3cnc(CC(=O)NC[C@@H]4CCCO4)nc3-c3ccccc3)c(F)cc2C(F)(F)F)n1 [Example 107, (S)-2-fluoro-5-(1-methyl-1H-pyrazol-3-yl)-N-(2-(2-oxo-2-(((tetrahydrofuran-2-yl)methyl)amino)ethyl)-4-phenylpyrimidin-5-yl)-4-(trifluoromethyl)benzamide]
1.5 | Cn1ccc(-c2cc(C(=O)Nc3cnc(CC(=O)NCCO)nc3-c3ccccc3)c(F)cc2C(F)(F)F)n1 [Example 108, 2-fluoro-N-(2-(2-((2-hydroxyethyl)amino)-2-oxoethyl)-4-phenylpyrimidin-5-yl)-5-(1-methyl-1H-pyrazol-3-yl)-4-(trifluoromethyl)benzamide]
2.6 | Cn1ccc(-c2cc(C(=O)Nc3cnc(CC(=O)N[C@H]4C[C@@H](O)C4)nc3-c3ccccc3)c(F)cc2C(F)(F)F)n1 [Example 109, 2-fluoro-N-(2-(2-(((1s,3s)-3-hydroxycyclobutyl)amino)-2-oxoethyl)-4-phenylpyrimidin-5-yl)-5-(1-methyl-1H-pyrazol-3-yl)-4-(trifluoromethyl)benzamide]
1.2 | Cn1ccc(-c2cc(C(=O)Nc3cnc(CC(=O)N[C@H]4CCOC4)nc3-c3ccccc3)c(F)cc2C(F)(F)F)n1 [Example 110, (S)-2-fluoro-5-(1-methyl-1H-pyrazol-3-yl)-N-(2-(2-oxo-2-((tetrahydrofuran-3-yl)amino)ethyl)-4-phenylpyrimidin-5-yl)-4-(trifluoromethyl)benzamide]
9.1 | Cn1ccc(-c2cc(C(=O)Nc3cnc(CC(=O)N4CCOCC4)nc3-c3ccccc3)c(F)cc2C(F)(F)F)n1 [Example 111, 2-fluoro-5-(1-methyl-1H-pyrazol-3-yl)-N-(2-(2-morpholino-2-oxoethyl)-4-phenylpyrimidin-5-yl)-4-(trifluoromethyl)benzamide]
6.5 | Cn1ccc(-c2cc(C(=O)Nc3cnc(CC(=O)NCC4CCOC4)nc3-c3ccccc3)c(F)cc2C(F)(F)F)n1 (stereo not drawn) [Example 112, 2-fluoro-5-(1-methyl-1H-pyrazol-3-yl)-N-(2-(2-oxo-2-(((tetrahydrofuran-3-yl)methyl)amino)ethyl)-4-phenylpyrimidin-5-yl)-4-(trifluoromethyl)benzamide]
1.3 | Cn1ccc(-c2cc(C(=O)Nc3cnc(CC(=O)NC4CCC4)nc3-c3ccccc3)c(F)cc2C(F)(F)F)n1 [Example 113, N-(2-(2-(cyclobutylamino)-2-oxoethyl)-4-phenylpyrimidin-5-yl)-2-fluoro-5-(1-methyl-1H-pyrazol-3-yl)-4-(trifluoromethyl)benzamide]
3 | Cn1ccc(-c2cc(C(=O)Nc3cnc(CC(=O)N4CCNCC4)nc3-c3ccccc3)c(F)cc2C(F)(F)F)n1 [Example 114, 2-fluoro-5-(1-methyl-1H-pyrazol-3-yl)-N-(2-(2-oxo-2-(piperazin-1-yl)ethyl)-4-phenylpyrimidin-5-yl)-4-(trifluoromethyl)benzamide]
2.6 | CCN(C)C(=O)Cc1ncc(NC(=O)c2cc(-c3ccn(C)n3)c(C(F)(F)F)cc2F)c(-c2ccccc2)n1 [Example 115, N-(2-(2-(ethyl(methyl)amino)-2-oxoethyl)-4-phenylpyrimidin-5-yl)-2-fluoro-5-(1-methyl-1H-pyrazol-3-yl)-4-(trifluoromethyl)benzamide]
9.8 | Cn1ccc(-c2cc(C(=O)Nc3cnc(CC(N)=O)nc3-c3ccccc3)ccc2C(F)(F)F)n1 [Example 116, N-(2-(2-amino-2-oxoethyl)-4-phenylpyrimidin-5-yl)-3-(1-methyl-1H-pyrazol-3-yl)-4-(trifluoromethyl)benzamide]
4.9 | Cc1ccccc1-c1nc(CC(N)=O)ncc1NC(=O)c1cc(-c2ccn(C)n2)c(C(F)(F)F)cc1F [Example 117, N-(2-(2-amino-2-oxoethyl)-4-(o-tolyl)pyrimidin-5-yl)-2-fluoro-5-(1-methyl-1H-pyrazol-3-yl)-4-(trifluoromethyl)benzamide]
3.8 | Cn1ccc(-c2cc(C(=O)Nc3cnc(C(O)C(N)=O)nc3-c3ccccc3)c(F)cc2C(F)(F)F)n1 (stereo not drawn) [Example 118, N-(2-(2-amino-1-hydroxy-2-oxoethyl)-4-phenylpyrimidin-5-yl)-2-fluoro-5-(1-methyl-1H-pyrazol-3-yl)-4-(trifluoromethyl)benzamide]
7.9 | Cn1ccc(-c2cc(C(=O)Nc3cnc(C4(C(N)=O)CC4)nc3-c3ccccc3)c(F)cc2C(F)(F)F)n1 [Example 119, N-(2-(1-carbamoylcyclopropyl)-4-phenylpyrimidin-5-yl)-2-fluoro-5-(1-methyl-1H-pyrazol-3-yl)-4-(trifluoromethyl)benzamide]
8.7 | Cn1ccc(-c2cc(C(=O)Nc3ncc(CC(N)=O)nc3-c3ccccc3)c(F)cc2C(F)(F)F)n1 [Example 120, N-(5-(2-amino-2-oxoethyl)-3-phenylpyrazin-2-yl)-2-fluoro-5-(1-methyl-1H-pyrazol-3-yl)-4-(trifluoromethyl)benzamide]
8 | Cn1ccc(-c2cc(C(=O)Nc3cnc(C(C)(C)C(=O)O)nc3-c3ccccc3)c(F)cc2C(F)(F)F)n1 [Example 121, 2-(5-(2-fluoro-5-(1-methyl-1H-pyrazol-3-yl)-4-(trifluoromethyl)benzamido)-4-phenylpyrimidin-2-yl)-2-methylpropanoic acid]
18 | Cn1ccc(-c2cc(C(=O)Nc3cnc(C(C)(C)C(N)=O)nc3-c3ccccc3)c(F)cc2C(F)(F)F)n1 [Example 122, N-(2-(1-amino-2-methyl-1-oxopropan-2-yl)-4-phenylpyrimidin-5-yl)-2-fluoro-5-(1-methyl-1H-pyrazol-3-yl)-4-(trifluoromethyl)benzamide]
8.4 | NC(=O)Cc1ncc(NC(=O)c2cc(-c3ccccn3)c(C(F)(F)F)cc2F)c(-c2ccccc2)n1 [Example 123, N-(2-(2-amino-2-oxoethyl)-4-phenylpyrimidin-5-yl)-2-fluoro-5-(pyridin-2-yl)-4-(trifluoromethyl)benzamide]

Source: patent publication US9815846B2 (Merck Sharp & Dohme Corp., priority 2014, dated 2017)
